Test results reported in ChEMBL document CHEMBL4376833, “Influence of Non-natural Cationic Amino Acids on the Biological Activity Profile of Innate Defense Regulator Peptides” (J Med Chem, 2019).
The source made the active and inactive calls. The rule behind the calls is not given here. Non-standard residues stand in square brackets, D forms with d. Residues, ends and D or L forms follow the SMILES beside them. hArg = N=C(N)NCCCC[C@H](N)C(=O)O; Agb = N=C(N)NCC[C@H](N)C(=O)O; Agp = N=C(N)NC[C@H](N)C(=O)O; Orn = NCCC[C@H](N)C(=O)O; Dab = NCC[C@H](N)C(=O)O

Tests used:
[1] = test system: Staphylococcus aureus; assay: Antibiofilm activity against methicillin-resistant Staphylococcus aureus assessed as inhibition of biofilm formation incubated for overnight by crystal violet staining based microtiter plate assay; assay type: functional, organism-based
[2] = test system: Staphylococcus aureus; assay: Antibiofilm activity against methicillin-resistant Staphylococcus aureus assessed as inhibition of biofilm formation by measuring residual biofilm growth incubated for overnight at 10-fold dilution by crystal violet staining based microtiter plate assay relative to control; assay type: functional
[3] = test system: Staphylococcus aureus; assay: Antibacterial activity against methicillin-resistant Staphylococcus aureus assessed as alteration in bacterial growth incubated for overnight by microtiter plate based spectrophotometric analysis; assay type: functional, organism-based

Compound | inhibition [1] | residual biofilm growth (% of control) [2] | Activity [3]
CC[C@H](C)[C@H](NC(=O)[C@H](CCCNC(=N)N)NC(=O)[C@@H](NC(=O)[C@H](C)NC(=O)[C@@H](NC(=O)[C@@H](NC(=O)[C@H](CC(C)C)NC(=O)[C@H](CCCCNC(=N)N)NC(=O)[C@@H](N)C(C)C)[C@@H](C)CC)C(C)C)C(C)C)C(=O)N[C@@H](Cc1c[nH]c2ccccc12)C(=O)N[C@@H](CCCNC(=N)N)C(=O)N[C@@H](CCCNC(=N)N)C(N)=O (H-V[hArg]LIVAVRIWRR-NH2) | Dose-dependent effect | 38.4% | Active
CC[C@H](C)[C@H](NC(=O)[C@H](CCCNC(=N)N)NC(=O)[C@@H](NC(=O)[C@H](CCNC(=N)N)NC(=O)[C@@H](NC(=O)[C@@H](NC(=O)[C@H](CC(C)C)NC(=O)[C@H](CCCNC(=N)N)NC(=O)[C@@H](N)C(C)C)[C@@H](C)CC)C(C)C)C(C)C)C(=O)N[C@@H](Cc1c[nH]c2ccccc12)C(=O)N[C@@H](CCCNC(=N)N)C(=O)N[C@@H](CCCNC(=N)N)C(N)=O (H-VRLIV[Agb]VRIWRR-NH2) | Dose-dependent effect | 105.9% | Active
CC[C@H](C)[C@H](NC(=O)[C@H](CCCNC(=N)N)NC(=O)[C@@H](NC(=O)[C@H](C)NC(=O)[C@@H](NC(=O)[C@@H](NC(=O)[C@H](CCN)NC(=O)[C@H](CCCNC(=N)N)NC(=O)[C@@H](N)C(C)C)[C@@H](C)CC)C(C)C)C(C)C)C(=O)N[C@@H](Cc1c[nH]c2ccccc12)C(=O)N[C@@H](CCCNC(=N)N)C(=O)N[C@@H](CCCNC(=N)N)C(N)=O (H-VR[Dab]IVAVRIWRR-NH2) | Dose-dependent effect | 48.6% | Active
H-VRLIVAVRIKRR-NH2 | Dose-dependent effect | 44.7% | Active
CC[C@H](C)[C@H](NC(=O)[C@H](CCCNC(=N)N)NC(=O)[C@@H](NC(=O)[C@H](C)NC(=O)[C@@H](NC(=O)[C@@H](NC(=O)[C@H](CC(C)C)NC(=O)[C@H](CCCNC(=N)N)NC(=O)[C@@H](N)C(C)C)[C@@H](C)CC)C(C)C)C(C)C)C(=O)N[C@@H](Cc1c[nH]c2ccccc12)C(=O)N[C@@H](CCCNC(=N)N)C(=O)N[C@@H](CCCN)C(N)=O (H-VRLIVAVRIWR[Orn]-NH2) | Dose-dependent effect | 7.3% | Active
H-VRLIVAVKIWRR-NH2 | Dose-dependent effect | 17.9% | Active
CC[C@H](C)[C@H](NC(=O)[C@H](CCCNC(=N)N)NC(=O)[C@@H](NC(=O)[C@H](C)NC(=O)[C@@H](NC(=O)[C@@H](NC(=O)[C@H](CC(C)C)NC(=O)[C@H](CCCNC(=N)N)NC(=O)[C@@H](N)CCNC(=N)N)[C@@H](C)CC)C(C)C)C(C)C)C(=O)N[C@@H](Cc1c[nH]c2ccccc12)C(=O)N[C@@H](CCCNC(=N)N)C(=O)N[C@@H](CCCNC(=N)N)C(N)=O (H-[Agb]RLIVAVRIWRR-NH2) | Dose-dependent effect | 13.6% | Active
CC[C@H](C)[C@H](NC(=O)[C@H](CCCNC(=N)N)NC(=O)[C@@H](NC(=O)[C@H](CNC(=N)N)NC(=O)[C@@H](NC(=O)[C@@H](NC(=O)[C@H](CC(C)C)NC(=O)[C@H](CCCNC(=N)N)NC(=O)[C@@H](N)C(C)C)[C@@H](C)CC)C(C)C)C(C)C)C(=O)N[C@@H](Cc1c[nH]c2ccccc12)C(=O)N[C@@H](CCCNC(=N)N)C(=O)N[C@@H](CCCNC(=N)N)C(N)=O (H-VRLIV[Agp]VRIWRR-NH2) | Dose-dependent effect | 104.8% | Active
